Experimental data reported in ChEMBL document CHEMBL5532669, “Guiding the Way: Traditional Medicinal Chemistry Inspiration for Rational Gram-Negative Drug Design” (J Med Chem, 2024).
Converted amounts (≈) assume the structure as drawn.

What was measured:
[1] = test system: Escherichia coli; assay: Antibacterial activity against wild type Escherichia coli ATCC 25922 assessed as reduction in bacterial growth measured after 16 to 20 hrs by CLSI-based microbroth dilution method; type: functional, organism-based
[2] = test system: Escherichia coli; assay: Antibacterial activity against wild type Escherichia coli assessed as reduction in microbial growth measured after 24 hrs by broth microdilution method
[3] = test system: Escherichia coli; assay: as above; remark: listed apart in the source
[4] = test system: Pseudomonas aeruginosa; assay: Antibacterial activity against Pseudomonas aeruginosa ATCC 15442 assessed as bacterial growth inhibition measured after 18 hrs by CLSI protocol based two-fold serial microdilution method; type: functional
[5] = test system: Enterobacter cloacae; assay: Antibacterial activity against Enterobacter cloacae assessed as reduction in bacterial growth by broth microdilution method; type: functional
[6] = test system: Escherichia coli; assay: Antibacterial activity against Escherichia coli assessed as reduction in bacterial growth incubated for 24 hrs by broth micro-dilution method; type: functional
[7] = test system: Acinetobacter baumannii; assay: Antibacterial activity against Acinetobacter baumannii assessed as reduction in bacterial growth by broth microdilution method; type: functional
[8] = test system: Klebsiella pneumoniae; assay: Antibacterial activity against Klebsiella pneumoniae assessed as reduction in bacterial growth by broth microdilution method; type: functional
[9] = test system: Escherichia coli; assay: Antibacterial activity against wild type Escherichia coli assessed as reduction in bacterial growth inhibition incubated for 24 hrs by broth microdilution method; type: functional, organism-based
[10] = target: T1, MexAB/OprM (Pseudomonas aeruginosa (strain ATCC 15692 / DSM 22644 / CIP 104116 / JCM14847 / LMG 12228 / 1C / PRS 101 / PAO1)) (UniProt P52477+P52002+Q51487); assay: Inhibition of Pseudomonas aeruginosa MexAB-OprM P delta 6 pore assessed as minimal potentiating concentration for 4 fold reduction cefotaxime MIC; type: protein-complex assay
[11] = target: T1, MexAB/OprM (Pseudomonas aeruginosa (strain ATCC 15692 / DSM 22644 / CIP 104116 / JCM14847 / LMG 12228 / 1C / PRS 101 / PAO1)); assay: Inhibition of Pseudomonas aeruginosa MexAB-OprM P delta 6 pore assessed as minimal potentiating concentration for 4 fold reduction Levofloxacin MIC; type: protein-complex assay
[12] = target: T1, MexAB/OprM (Pseudomonas aeruginosa (strain ATCC 15692 / DSM 22644 / CIP 104116 / JCM14847 / LMG 12228 / 1C / PRS 101 / PAO1)); assay: Inhibition of Pseudomonas aeruginosa MexAB-OprM P delta 6 pore assessed as minimal potentiating concentration for 4 fold reduction novobiocin MIC; type: protein-complex assay
[13] = target: T1, MexAB/OprM (Pseudomonas aeruginosa (strain ATCC 15692 / DSM 22644 / CIP 104116 / JCM14847 / LMG 12228 / 1C / PRS 101 / PAO1)); assay: Inhibition of Pseudomonas aeruginosa MexAB-OprM P delta 6 pore assessed as minimal potentiating concentration for 4 fold reduction carbenicillin MIC; type: protein-complex assay
[14] = target: T1, MexAB/OprM (Pseudomonas aeruginosa (strain ATCC 15692 / DSM 22644 / CIP 104116 / JCM14847 / LMG 12228 / 1C / PRS 101 / PAO1)); assay: Inhibition of Pseudomonas aeruginosa MexAB-OprM P delta 6 pore assessed as minimal potentiating concentration for 4 fold reduction ciprofloxacin MIC; type: protein-complex assay
[15] = test system: Acinetobacter baumannii; assay: Antibacterial activity against wild type Acinetobacter baumannii ATCC 17978 assessed as inhibition of microbial growth measured after 24 hrs by broth microdilution method; type: functional, organism-based; details: ATCC 17978, 24 h

O=C1O[C@@H](CO)CN1c1ccc(-c2ccccc2)c(F)c1
IC50 [1]: 13.5 µM

CC(O)c1ccc(OCc2ccc(N3C[C@H](CO)OC3=O)cc2F)cc1 (some centres not stated)
IC50 [2]: 59 µM

C[n+]1ccc(-c2ccc(-c3ccc(N4C[C@H](CO)OC4=O)cc3F)cc2)cc1
IC50 [3]: 15.4 µM

C[n+]1cccc(-c2ccc(-c3ccc(N4C[C@H](CO)OC4=O)cc3F)cc2)c1
IC50 [3]: 15.4 µM

O=C1O[C@@H](CO)CN1c1ccc(-c2cccc(CO)c2)c(F)c1
IC50 [1]: 13.5 µM

Cc1c(CN(C)C(=O)/C=C/c2cnc3c(c2)CCC(=O)N3)oc2ccccc12 [AFN-1252]
MIC [4]: > 32 µg/mL
MIC [5]: > 32 µg/mL
MIC [6]: > 32 µg/mL
MIC [7]: > 32 µg/mL
MIC [8]: > 32 µg/mL

O=C1O[C@@H](CO)CN1c1ccc(-c2cc[n+](Cc3ccccc3)cc2)c(F)c1
IC50 [3]: 15.4 µM

Cc1c(CNC2CCC(N)CC2)cc(-c2ccc(Cl)cc2)n1-c1ccc(Cl)cc1 (configuration not stated)
MIC [4]: 32 µg/mL (≈ 74.7 µM)
MIC [6]: 8 µg/mL (≈ 18.7 µM)
MIC [7]: 16 µg/mL (≈ 37.3 µM)
MIC [8]: 16 µg/mL (≈ 37.3 µM)

Nc1cccc(-c2ccc(N3C[C@H](CO)OC3=O)cc2F)n1
IC50 [2]: 59 µM

CC(C)[n+]1ccc(-c2ccc(N3C[C@H](CO)OC3=O)cc2F)cc1
IC50 [1]: 13.5 µM

C[n+]1ccccc1-c1ccc(-c2ccc(N3C[C@H](CO)OC3=O)cc2F)cc1
IC50 [3]: 15.4 µM

Cc1c(CN(C)C(=O)/C=C/c2cnc3c(c2)CC(N)C(=O)N3)oc2ccccc12 (configuration not stated)
MIC [4]: > 64 µg/mL
MIC [5]: 8 µg/mL (≈ 20.5 µM)
MIC [6]: 4 µg/mL (≈ 10.2 µM)
MIC [7]: 4 µg/mL (≈ 10.2 µM)
MIC [8]: 8 µg/mL (≈ 20.5 µM)

O=C1O[C@@H](CO)CN1c1ccc(-c2ccc(-c3ccccn3)cc2)c(F)c1
IC50 [1]: 13.5 µM

Cc1cc(=O)n(C)c2c3c4c(cc12)c(C)cc(=O)n4C(CN)CO3 (configuration not stated)
MIC [4]: 16 µg/mL (≈ 49.2 µM)
MIC [5]: 0.5 µg/mL (≈ 1.54 µM)
MIC [6]: 0.5 µg/mL (≈ 1.54 µM)
MIC [7]: 2 µg/mL (≈ 6.15 µM)
MIC [8]: 1 µg/mL (≈ 3.07 µM)

COCc1ccc(N2C[C@H](CO)OC2=O)cc1F
IC50 [2]: 59 µM

C[n+]1ccc2cc(-c3ccc(N4C[C@H](CO)OC4=O)cc3F)ccc2c1
IC50 [3]: 15.4 µM

CC(C)c1ccc(-c2ccc(N3C[C@H](CO)OC3=O)cc2F)c(C(C)C)c1
IC50 [9]: 23 µM

CSCc1ccc(N2C[C@H](CO)OC2=O)cc1F
IC50 [2]: 59 µM

CC[n+]1ccc(-c2ccc(N3C[C@H](CO)OC3=O)cc2F)cc1
IC50 [3]: 15.4 µM

O=Cc1ccc(-c2ccc(N3C[C@H](CO)OC3=O)cc2F)cc1
IC50 [1]: 13.5 µM

O=C1O[C@@H](CO)CN1c1ccc(-c2ccc(SC(F)(F)F)cc2)c(F)c1
IC50 [1]: 13.5 µM

N/C(=N/O)c1ccc(-c2ccc(N3C[C@H](CO)OC3=O)cc2F)cc1
IC50 [1]: 13.5 µM

Cc1c(CNC2CCCCC2)cc(-c2ccc(Cl)cc2)n1-c1ccc(Cl)cc1
MIC [4]: > 128 µg/mL
MIC [6]: > 128 µg/mL
MIC [7]: 64 µg/mL (≈ 155 µM)
MIC [8]: > 128 µg/mL

O=C1O[C@@H](CO)CN1c1ccc(-c2ccccc2OC(F)(F)F)c(F)c1
IC50 [9]: 23 µM

O=C(/C=C/c1ccccc1Cl)Nc1ccc(C2=NCCN2)cc1
MEC [10]: > 100 µM
MEC [11]: > 100 µM
MEC [12]: > 100 µM
MEC [13]: > 100 µM
MEC [14]: > 100 µM

O=C1O[C@@H](CO)CN1c1ccc(-c2ccc(CO)cc2)c(F)c1
IC50 [1]: 13.5 µM

O=C1O[C@@H](CO)CN1c1ccc(-c2cc(Cl)cc(Cl)c2)c(F)c1
IC50 [2]: 59 µM

O=C1O[C@@H](CO)CN1c1ccc(-c2ccnc(N3CCCC3)c2)c(F)c1
IC50 [15]: 19 µM

O=C(/C=C/c1ccccc1Cl)Nc1ccc(C2=NCCN2)c(C2=NCCN2)c1
MEC [10]: 100 µM
MEC [11]: 6.25 µM
MEC [12]: 3.12 µM
MEC [13]: 100 µM
MEC [14]: 12.5 µM

CCC[n+]1ccc(-c2ccc(N3C[C@H](CO)OC3=O)cc2F)cc1
IC50 [3]: 15.4 µM

COC(=O)c1ccccc1-c1ccc(N2C[C@H](CO)OC2=O)cc1F
IC50 [9]: 23 µM

COC(=O)c1cncc(-c2ccc(N3C[C@H](CO)OC3=O)cc2F)c1
IC50 [15]: 19 µM

Cc1c(CNCCCCCCCCNC(=N)N)cc(-c2ccc(Cl)cc2)n1-c1ccc(Cl)cc1
MIC [4]: 64 µg/mL (≈ 128 µM)
MIC [6]: 8 µg/mL (≈ 16 µM)
MIC [7]: 8 µg/mL (≈ 16 µM)
MIC [8]: 16 µg/mL (≈ 32 µM)
